The structures appear in SMILES notation. The source made the active and inactive calls. No rule for the calls is given here.

What is called Kd is a measure of binding affinity in units of concentration.

This experiment addresses Influenza A virus M2 proton channel (A/TW/4845/1999 H1N1). Description: M2 proton channel binding, NMR based, influenza A virus H1N1 strain (AID 1549). The following applies: NMR binding screen, M2 protein.
As for `O=C(O)c1ccc(N2CCOCC2)nc1`, the Kd is > 4 mM (inactive).
As for `c1ccc(CSc2ncccn2)cc1`, the Kd was > 4 mM (inactive).
For `O=C(Nc1cccc(C(F)(F)F)c1)c1cccnc1`, the Kd was > 4 mM (inactive).
In the case of `OCC(O)C(O)C(O)CO` (centres undefined) it was > 4 mM (inactive); in that of `O=S1(=O)CCC(Nc2ccccc2)C1` (centres undefined), > 4 mM (inactive).
For `CC(=O)NCC1OCCc2ccccc21` (centres undefined) the value was > 4 mM (inactive).
For `Nc1nc2ncc(=O)[nH]c2c(=O)[nH]1` the value was > 4 mM (inactive); for `CC(=O)CNc1cc(CNC(C)=O)c(C)cc1C`, > 4 mM (inactive); for `CN1CCC(NC(=O)c2cnccn2)CC1`, > 4 mM (inactive).
As for `O=C(O)c1ccc(NC(=O)c2cccs2)cc1`, the Kd was > 4 mM (inactive).
`COc1ccc2c(CC(=O)O)coc2c1`: the Kd was > 4 mM (inactive).
For `Cc1nc2nc(COc3ccccc3)nn2c(C)c1Cl` the value was > 4 mM (inactive); for `O=C1NC(=S)N/C1=C\c1ccccc1`, > 4 mM (inactive).
For `COc1ccc(-c2nc(N)n(C(C)=O)n2)cc1` the value was > 4 mM (inactive).
In the case of `CCOC(=O)c1csc(C2COc3ccccc3O2)n1` (centres undefined) it was > 4 mM (inactive); in that of `CC(CO)NC(=O)C1C=C2c3cccc4[nH]cc(c34)C[C@H]2N(C)C1` (some centres undefined), > 4 mM (inactive).
Turning to `O=C(Nc1ccccc1)Nc1ccccn1`, the Kd was > 4 mM (inactive).
Turning to `NC(=O)Cc1nc(-c2ccccc2)cs1`, the Kd was > 4 mM (inactive).
In the case of `O=C(Nc1nnc(-c2cccnc2)o1)c1ccccc1F` it was > 4 mM (inactive); in that of `Cn1ncc(CO)c1-c1ccccc1`, > 4 mM (inactive).
In the case of `CC(=O)OC1CCC23CC1(C)CCC2C(C)(C)CC3OC(C)=O` (centres undefined) it was > 4 mM (inactive).
In the case of `O=C1CSC(=Nc2ccc(F)cc2)N1` it was > 4 mM (inactive).
`O=C1NC(=Nc2ccc(O)cc2)S/C1=C/c1ccco1`: the Kd is > 4 mM (inactive).
In the case of `CCc1ccccc1NC(=O)c1ccoc1C` it was > 4 mM (inactive); in that of `Cc1cc(O)c2c(c1)C(=O)c1cccc(O)c1C2=O`, > 4 mM (inactive); in that of `CC(=O)O[C@H]1CCC2(C)C3=C(CCC2C1(C)C)[C@@]1(C)CC[C@@H](C(C)CCC=C(C)C)[C@]1(C)CC3` (some centres undefined), > 4 mM (inactive).
For `COc1cc2c(cc1-c1cc3cc4ccoc4cc3oc1=O)OCO2` the value was > 4 mM (inactive); for `CCOC(=O)Cc1cc(=O)n2[nH]c(C)cc2n1`, > 4 mM (inactive); for `Cc1nnc2sc(-c3ccco3)nn12`, > 4 mM (inactive).
Take `COc1ccc2c(c1O)-c1c(OC)c(OC)cc3c1[C@H](C2)N(C)CC3`: the Kd is > 4 mM (inactive).
As for `CCn1c(-c2ccccc2)n[nH]c1=S`, the Kd is > 4 mM (inactive).
In the case of `O=c1[nH]cc(S(=O)(=O)Nc2ccccc2)c(=O)[nH]1` it was > 4 mM (inactive); in that of `O=c1c(O)cc([C@H]2Oc3cc(O)cc(O)c3C[C@H]2O)cc2c([C@H]3Oc4cc(O)cc(O)c4C[C@H]3O)cc(O)c(O)c12`, > 4 mM (inactive); in that of `CC(=O)O[C@H]1C[C@@]2(C)[C@@H](C[C@@H](O)C3[C@]2(C)CC[C@H]2[C@H](C)[C@H](O)CC[C@]32C)/C1=C(/CCC=C(C)C)C(=O)O` (some centres undefined), > 4 mM (inactive).
In the case of `Cn1cnnc1SCC(=O)Nc1nccs1` it was > 4 mM (inactive); in that of `O=c1ccn(Cc2ccccc2)c(=O)n1Cc1ccccc1`, > 4 mM (inactive); in that of `Clc1ccccc1OCc1nc(-c2ccccn2)no1`, > 4 mM (inactive).
For `COC(=O)[C@@H]1OC(=O)C2OC23[C@@]1(C)CCC1[C@@]2(C)CCC(=O)C(C)(C)C2C[C@@H](OC(C)=O)[C@]13C` (some centres undefined) the value was > 4 mM (inactive); for `CNC(=S)N1CCN(C(=O)c2ccco2)CC1`, > 4 mM (inactive).
As for `O=C(Nc1nnc(C(F)(F)F)s1)c1cccnc1`, the Kd was > 4 mM (inactive).
For `O=C(O)/C=C/c1ccc(O)c(O)c1` the value was > 4 mM (inactive).
`Cc1c(C(=O)O)cnn1-c1ccccc1`: the Kd was > 4 mM (inactive).
For `O=C(/C=C/c1ccc(O)cc1)c1ccc(O)cc1O` the value was > 4 mM (inactive); for `S=C(NCc1ccco1)NN1CCOCC1`, > 4 mM (inactive); for `CS(=O)(=O)NN=C1CCCCC1`, > 4 mM (inactive).
For `Cc1[nH]c2ccccc2c(=O)c1CO` the value was > 4 mM (inactive).
In the case of `C[C@@H]1CC[C@]2(C(=O)O)CC[C@]3(C)C(=CCC4[C@@]5(C)CC[C@H](O)C(C)(C)C5CC[C@]43C)C2[C@H]1C` (some centres undefined) it was > 4 mM (inactive).
For `O=C(c1ccc(F)cc1)N1CCOCC1`, the Kd is > 4 mM (inactive).
In the case of `OC1CC(c2ccccc2)NC2(CCCC2)C1` (centres undefined) it was > 4 mM (inactive); in that of `O=C(NC1=NCCS1)c1csc2ccccc12`, > 4 mM (inactive).
`Cc1cc(C(=O)NC(C)c2ccncc2)cs1` (centres undefined): the Kd was > 4 mM (inactive).
For `NCc1ccc(-c2ccccn2)s1` the value was > 4 mM (inactive); for `OCc1ccc(-n2ccnc2)cc1`, > 4 mM (inactive); for `O=c1c(-c2ccc(O)cc2)coc2cc(O)ccc12`, > 4 mM (inactive).
As for `O=C1CCC(=O)N1CN1CCOCC1`, the Kd was > 4 mM (inactive).
In the case of `O=c1cnnc(N2CCCCC2)[nH]1` it was > 4 mM (inactive); in that of `CN1CCN(c2ccc(C(=O)O)cc2)CC1`, > 4 mM (inactive).
Turning to `OC1CCN(c2nccc(C(F)(F)F)n2)CC1`, the Kd was > 4 mM (inactive).
In the case of `C=C(C)[C@H]1Cc2c(ccc3c2O[C@@H]2COc4cc(OC)c(OC)cc4[C@@H]2C3=O)O1` it was > 4 mM (inactive).
In the case of `Cc1nc2ccccc2c(=O)n1/N=C/c1ccco1` it was > 4 mM (inactive).
For `Cn1cnc2c(=O)[nH]cc([N+](=O)[O-])c21` the value was > 4 mM (inactive); for `CC(=O)Nc1ccc(NC(=O)/C=C\C(=O)O)cc1`, > 4 mM (inactive).
Consider `O=C(O)CC12CC3CC(CC(O)(C3)C1)C2`, for which the Kd is > 4 mM (inactive).
For `Cc1ccc(C(=O)N2CCC(C(N)=O)CC2)cc1C` the value was > 4 mM (inactive).
Take `O=C1CSC(c2ccccc2)N1` (centres undefined): the Kd is > 4 mM (inactive).
With `NC(=S)NC(=O)CN1C(=O)c2ccccc2C1=O`, the Kd is > 4 mM (inactive).
For `CC[C@@H]1[C@@H](O)N2C3C[C@H]1C1C(O)[C@]4(C[C@@H]12)c1ccccc1N(C)[C@@H]34` (some centres undefined) the value was > 4 mM (inactive); for `CCCn1c(C)cc(=O)[nH]c1=O`, > 4 mM (inactive).
In the case of `CCN(CC)C(=O)c1n[nH]c(=O)c2ccccc12` it was > 4 mM (inactive); in that of `Cc1ccc(SCc2cc(=O)n3[nH]cnc3n2)cc1`, > 4 mM (inactive); in that of `O=C(NCC1CCNCC1)c1ccccn1`, > 4 mM (inactive).
In the case of `CS(=O)(=O)c1nncn1-c1ccccc1` it was > 4 mM (inactive); in that of `CC(=O)CC1(O)C(=O)Nc2ccc(Br)cc21` (centres undefined), > 4 mM (inactive); in that of `CC12CCC(O)CC1CCC1C2[C@H](O)CC2(C)C(C3=CC(=O)OC3)CCC12O` (some centres undefined), > 4 mM (inactive).
Consider `Nc1ncccc1OCc1ccccc1`, for which the Kd was > 4 mM (inactive).
For `CC1=CC(=O)C2C(C)(C)CCC[C@]2(C)[C@@]1(O)CCc1ccoc1` (some centres undefined) the value was > 4 mM (inactive).
For `CC(=O)c1cccc(NC(=O)C=C(C)C)c1` the value was > 4 mM (inactive); for `CC(=O)NN1C(=O)c2cccc3cccc(c23)C1=O`, > 4 mM (inactive).
On to `Nc1cccc2c(=O)[nH][nH]c(=O)c12`, for which the Kd was > 4 mM (inactive).
Take `Nc1ncnc2c1ncn2[C@@H]1O[C@H](CO)[C@@H](O)[C@H]1O`: the Kd is > 4 mM (inactive).
Consider `O=c1c2c(nc3nc(COc4ccccc4)[nH]n13)CCC2`, for which the Kd is > 4 mM (inactive).
In the case of `c1ccc2[nH]c(SCc3cscn3)nc2c1` it was > 4 mM (inactive); in that of `O=C(Cc1ccc(F)cc1)Nc1ncccn1`, > 4 mM (inactive); in that of `CC(=O)c1cnc2nc(C(F)(F)F)nn2c1C`, > 4 mM (inactive).
For `COC(=O)c1[nH]c2ccccc2c1C(=O)OC` the value was > 4 mM (inactive).
In the case of `Cc1nn2c(nc1=O)SCC(c1ccccc1)=N2` it was > 4 mM (inactive); in that of `CN(C)S(=O)(=O)c1cccc(N)c1`, > 4 mM (inactive); in that of `Cc1cc(N2CCN(C)CC2)ncn1`, > 4 mM (inactive).
With `O=C1CS/C(=N/N=C/c2cccs2)N1`, the Kd is > 4 mM (inactive).
For `CC1=C(C(N)=O)C(c2cccs2)C(C(N)=O)=C(C)N1` the value was > 4 mM (inactive).
For `CSc1ccccc1C(=O)N1CCOCC1` the value was > 4 mM (inactive); for `OCC(O)Cc1ccc2c(c1)OCO2` (centres undefined), > 4 mM (inactive); for `O=C(Nc1nncs1)c1c(F)cccc1F`, > 4 mM (inactive).
In the case of `CC(=O)NC(=S)Nc1ccc(S(N)(=O)=O)cc1` it was > 4 mM (inactive); in that of `O=C1C=CC2=C3c4cc(O)c(O)cc4C[C@@]3(O)COC2=C1`, > 4 mM (inactive); in that of `COc1cc(-c2nnc(NC(C)=O)o2)cc(OC)c1OC`, > 4 mM (inactive).
For the molecule `O=C(Nc1ccc(N2CCOCC2)cc1)c1cnsn1`, the Kd is > 4 mM (inactive).
In the case of `O=C(Nc1ccccc1C(F)(F)F)c1cnccn1` it was > 4 mM (inactive); in that of `C[C@H]1O[C@@H](O[C@H]2[C@@H](O)C[C@H](O[C@H]3[C@@H](O)C[C@H](O[C@H]4CC[C@]5(C)C6CC[C@]7(C)[C@@H](C8=CC(=O)OC8)CC[C@]7(O)C6CC[C@@H]5C4)O[C@@H]3C)O[C@@H]2C)C[C@H](O)[C@@H]1O` (some centres undefined), > 4 mM (inactive).

The values above are taken from PubChem BioAssay AID1549 (Sanford-Burnham Center for Chemical Genomics, 2009).
